Structures can show the parent of a compound that is named as a salt. Where two headings read alike, the source gives them in different places.
Columns and labels:
cTn I = test: Plasma cTn I; assay type: in vivo, Sprague Dawley rats; details: MI/R rats, Sigmoid-Emax model
[1] = MI/R rats, plasma, n = 6
α-HBDH = test: Plasma α-HBDH; assay type: in vivo, Sprague Dawley rats; details: MI/R rats, Sigmoid-Emax model
CK-MB = test: Plasma CK-MB; assay type: in vivo, Sprague Dawley rats; details: MI/R rats, Sigmoid-Emax model
IMA = test: Plasma IMA; assay type: in vivo, Sprague Dawley rats; details: MI/R rats, Sigmoid-Emax model
[2] = test system: CK-MB, IMA, cTn I, and α-HBDH; test: Cardioprotection in MI/R rats judged on the four myocardial injury biomarkers; assay type: in vivo, Sprague Dawley rats; details: plasma, ELISA, i.v.

CL1 ([1]; GHI-H (GHI 10 mL/kg, i.v.)) [mL/min/kg]	CL2 ([1]; GHI-H (GHI 10 mL/kg, i.v.)) [mL/min/kg]	K10 ([1]; GHI-H (GHI 10 mL/kg, i.v.)) [h⁻¹]	K12 ([1]; GHI-H (GHI 10 mL/kg, i.v.)) [h⁻¹]	K21 ([1]; GHI-H (GHI 10 mL/kg, i.v.)) [h⁻¹]	Q ([1]; GHI-H (GHI 10 mL/kg, i.v.)) [mL/min/kg]	V1 ([1]; GHI-H (GHI 10 mL/kg, i.v.)) [L/kg]	V2 ([1]; GHI-H (GHI 10 mL/kg, i.v.)) [L/kg]	t1/2α ([1]; GHI-H (GHI 10 mL/kg, i.v.)) [min]	CL1 ([1]; GHI-L (GHI […], i.v.)) [mL/min/kg]	CL2 ([1]; GHI-L (GHI […], i.v.)) [mL/min/kg]	K10 ([1]; GHI-L (GHI […], i.v.)) [h⁻¹]	K12 ([1]; GHI-L (GHI […], i.v.)) [h⁻¹]	K21 ([1]; GHI-L (GHI […], i.v.)) [h⁻¹]	Q ([1]; GHI-L (GHI […], i.v.)) [mL/min/kg]	V1 ([1]; GHI-L (GHI […], i.v.)) [L/kg]	t1/2α ([1]; GHI-L (GHI […], i.v.)) [min]	CL1 ([1]; GHI-M (GHI 5 mL/kg, i.v.)) [mL/min/kg]	Compound	Emax (maximal effect) of optimal PK/PD equation, ΔcTn I (cTn I; GHI-L ([…], i.v.))	Emax (maximal effect) of optimal PK/PD equation, ΔCK-MB (CK-MB; GHI-L ([…], i.v.))	other results
46.88 ± 7.65	111.9 ± 61.47	25.55 ± 19.846	42.24 ± 19.866	7.333 ± 1.971	111.8 ± 61.52	0.239 ± 0.209	0.855 ± 0.277	0.72 ± 0.36	63.25 ± 8.27	104.4 ± 13.5	10.125 ± 0.978	16.754 ± 1.998	3.748 ± 0.381	104.4 ± 13.6	0.379 ± 0.071	1.44 ± 0.12	47.87 ± 4.4	C[C@@H]1O[C@@H](OC[C@H]2O[C@@H](Oc3c(-c4ccc(O)c(O)c4)oc4cc(O)cc(O)c4c3=O)[C@H](O)[C@@H](O)[C@@H]2O)[C@H](O)[C@H](O)[C@H]1O [Rutin, rutin]	4.632	–	CL2 ([1]; GHI-M (GHI 5 mL/kg, i.v.)): 83.63 ± 11.1 mL/min/kg; K10 ([1]; GHI-M (GHI 5 mL/kg, i.v.)): 6.448 ± 1.858 h⁻¹; K12 ([1]; GHI-M (GHI 5 mL/kg, i.v.)): 11.318 ± 3.536 h⁻¹; K21 ([1]; GHI-M (GHI 5 mL/kg, i.v.)): 4.751 ± 1.024 h⁻¹; Q ([1]; GHI-M (GHI 5 mL/kg, i.v.)): 83.63 ± 11.1 mL/min/kg; V1 ([1]; GHI-M (GHI 5 mL/kg, i.v.)): 0.466 ± 0.88 L/kg; V2 ([1]; GHI-M (GHI 5 mL/kg, i.v.)): 1.075 ± 0.133 L/kg; t1/2α ([1]; GHI-M (GHI 5 mL/kg, i.v.)): 2.1 ± 0.6 min
57.82 ± 3.12	111 ± 36.42	4.878 ± 0.808	9.545 ± 4.156	10.071 ± 3.659	110.9 ± 36.38	0.723 ± 0.095	0.669 ± 0.07	2.04 ± 0.6	55.28 ± 6.15	98.48 ± 21.73	8.039 ± 2.934	14.117 ± 4.736	4.662 ± 1.024	98.48 ± 21.67	0.462 ± 0.17	1.8 ± 0.54	46.8 ± 2.23	O=C(O)/C=C/c1ccc(O)cc1 [p-Coumaric acid, p-coumaric acid]	2.907	6.058	Emax (maximal effect) of optimal PK/PD equation, Δα-HBDH (α-HBDH; GHI-H (10 mL/kg, i.v.)): 89.907; Emax (maximal effect) of optimal PK/PD equation, Δα-HBDH (α-HBDH; GHI-L ([…], i.v.)): 37.993; Emax (maximal effect) of optimal PK/PD equation, Δα-HBDH (α-HBDH; GHI-M (5 mL/kg, i.v.)): 71.86; Emax (maximal effect) of optimal PK/PD equation, ΔCK-MB (CK-MB; GHI-H (10 mL/kg, i.v.)): 15.798; Emax (maximal effect) of optimal PK/PD equation, ΔCK-MB (CK-MB; GHI-M (5 mL/kg, i.v.)): 15.943; Emax (maximal effect) of optimal PK/PD equation, ΔcTn I (cTn I; GHI-H (10 mL/kg, i.v.)): 9.007; Emax (maximal effect) of optimal PK/PD equation, ΔcTn I (cTn I; GHI-M (5 mL/kg, i.v.)): 7.258; Emax (maximal effect) of optimal PK/PD equation, ΔIMA (IMA; GHI-H (10 mL/kg, i.v.)): 62.712; Emax (maximal effect) of optimal PK/PD equation, ΔIMA (IMA; GHI-L ([…], i.v.)): 19.558; Emax (maximal effect) of optimal PK/PD equation, ΔIMA (IMA; GHI-M (5 mL/kg, i.v.)): 49.851; V2 ([1]; GHI-L (GHI […], i.v.)): 1.272 ± 0.124 L/kg; CL2 ([1]; GHI-M (GHI 5 mL/kg, i.v.)): 115.3 ± 41 mL/min/kg; K10 ([1]; GHI-M (GHI 5 mL/kg, i.v.)): 4.277 ± 0.897 h⁻¹; K12 ([1]; GHI-M (GHI 5 mL/kg, i.v.)): 11.023 ± 5.384 h⁻¹; K21 ([1]; GHI-M (GHI 5 mL/kg, i.v.)): 10.302 ± 3.876 h⁻¹; Q ([1]; GHI-M (GHI 5 mL/kg, i.v.)): 115.3 ± 41.02 mL/min/kg; V1 ([1]; GHI-M (GHI 5 mL/kg, i.v.)): 0.677 ± 0.122 L/kg; V2 ([1]; GHI-M (GHI 5 mL/kg, i.v.)): 0.7 ± 0.142 L/kg; t1/2α ([1]; GHI-M (GHI 5 mL/kg, i.v.)): 2.22 ± 1.5 min
–	–	–	–	–	–	–	–	–	–	–	–	–	–	–	–	–	–	COc1ccc(CCN(C)CCCC(C#N)(c2ccc(OC)c(OC)c2)C(C)C)cc1OC (stereo not shown) [verapamil hydrochloride, Verapamil hydrochloride]	–	–	elevated level of the four biomarkers induced by MI/R [2]: declined to different degrees
–	–	–	–	–	–	–	–	–	–	–	–	–	–	–	–	–	–	hydroxysafflor yellow A	4.628	11.082	Emax (maximal effect) of optimal PK/PD equation, Δα-HBDH (α-HBDH; GHI-L ([…], i.v.)): 49.45; Emax (maximal effect) of optimal PK/PD equation, Δα-HBDH (α-HBDH; GHI-M (5 mL/kg, i.v.)): 88.223; Emax (maximal effect) of optimal PK/PD equation, ΔCK-MB (CK-MB; GHI-M (5 mL/kg, i.v.)): 27.2; Emax (maximal effect) of optimal PK/PD equation, ΔcTn I (cTn I; GHI-M (5 mL/kg, i.v.)): 7.341; Emax (maximal effect) of optimal PK/PD equation, ΔIMA (IMA; GHI-L ([…], i.v.)): 31.473; Emax (maximal effect) of optimal PK/PD equation, ΔIMA (IMA; GHI-M (5 mL/kg, i.v.)): 49.851
–	–	–	–	–	–	–	–	–	–	–	–	–	–	–	–	–	–	kaempferol-3-O-rutinoside	–	11.04	–

From paper PMC10962654 (Journal of Food and Drug Analysis, 2023)
